{"source": "patent US20220347190A1", "about": "“TREATMENT COMPRISING FXR AGONISTS” (Novartis AG, priority 2019, published 2022)", "key": {"[1]": {"tested_on": "C57BL/6J mice on HF/NASH diet", "assay": "Drug treatment study in mice on HF/NASH diet (Example 1)", "assay_type": "in vivo", "experimental": "Studies were performed in compliance with Swiss guidelines for animal experimentation. Adult male C57BLJ6J mice were housed with ad libitum access to water and food. Mice were fed a HF/NASH diet (40 kcal % fat, 2% cholesterol, 40 kcal % carbohydrate, Research Diets, D09100301 or SSniff Special Diets, supplemented with a fructose-sucrose solution (42 g/L, 55% fructose and 45% sucrose by weight) in drinking water).\nTotal body fat and lean mass were analyzed by a nuclear magnetic resonance (NMR) and liver fat was measured by magnetic resonance imaging (MRI). […] Dietary intervention studies: mice fed a HF/NASH diet for 8 weeks were switched to normal diet (ND and water) for 12 weeks.\nDrug treatment studies: mice exposed to HF/NASH diet for 20 weeks were treatment with LJP305 (1 mg/kg), GS-0976 (10 mg/kg) or vehicle (0.5% methylcellulose, 0.5% Tween 80 in water) p.o. once daily for 12 weeks while remaining on HF/NASH diet. At the end of the studies, blood and tissue samples were collected for analyses.\nLiver samples were analyzed for collagen (Quickzyme), lipids and triglycerides (Cayman). Relative gene expression was calculated by normalizing Ct values of genes of interest against 18s (liver) or Idh3b (fat, ileum). Serum TIMP-1 (R&D Systems Inc.), PIII-NP (N-terminal procollagen III propeptide) (Cusabio Biotech Co.), α-fetoprotein (R&D Systems Inc.), leptin, and adiponectin (Meso Scale Discovery) were measured.\nParaffin-embedded tissue was stained with hematoxylin/eosin (H&E) and picrosirius red. IBA1 (ionized calcium-binding adapter molecule 1)-positive crown-like structures (Abcam, ab178846), Ly6b (BioRad, MCA771), UCP-1 (Abcam, ab109839) or ZO-1 (Invitrogen, 14-9776-80) were stained (Ventana Discovery XT) followed by digital (Aperio ScanScope XT, Leica Biosystems) and automated image analysis (HALO, Indica Labs)."}, "NASH patients [2]": {"tested_on": "NASH patients", "conditions": "cited from earlier work"}, "NASH patients [3]": {"tested_on": "NASH patients", "conditions": "cited from earlier work", "remark": "listed apart in the source"}, "[4]": {"tested_on": "patients with biopsy-proven NASH and fibrosis stages 2-3", "text": "Prespecified endpoints assessed at week 12 included overall safety and changes in alanine aminotransferase (ALT), hepatic fat fraction (HFF), gamma glutamyl transferase (GGT), and body weight."}, "NASH patients [5]": {"tested_on": "NASH patients"}, "healthy volunteers": {"tested_on": "healthy volunteers", "conditions": "cited from earlier work"}, "[6]": {"conditions": "GS-0976 10 mg/kg p.o. once daily for 12 weeks, HF/NASH diet"}}, "note": "“Also recorded” adds a separate entry of the source. Like-named read-outs stand apart in the source and are kept apart here."}
{"smiles": "COc1ccccc1[C@H](Cn1c(=O)n(C(C)(C)C(=O)O)c(=O)c2c(C)c(-c3ncco3)sc21)OC1CCOCC1", "note": "[GS-0976, 2-[1-{(2R)-2-(2-methoxyphenyl)-2-[(oxan-4-yl)oxy]ethyl}-5-methyl-6-(1,3-oxazol-2-yl)-2,4-dioxo-1,4-dihydrothieno[2,3-d]pyrimidin-3(2H)-yl]-2-methylpropanoic acid]", "values": [{"measurement": "elevation of circulating leptin levels vs vehicle", "setting": "[1]; [6]", "result": 2, "unit": "fold"}, {"measurement": "increase in total fat mass vs vehicle", "setting": "[1]; [6]", "result": 27, "unit": "%"}, {"measurement": "increase in visceral and subcutaneous fat vs vehicle", "setting": "[1]; [6]", "result": 30, "unit": "%"}, {"measurement": "mean body weight above vehicle-treated mice", "setting": "[1]; GS-0976 10 mg/kg p.o. once daily, end of 12-week treatment, HF/NASH diet", "result": 7, "unit": "%"}, {"measurement": "liver gene expression (lipid metabolism genes)", "setting": "[1]; GS-0976 10 mg/kg, liver transcriptome", "result": "induced multiple genes known to play roles in lipid metabolism"}, {"measurement": "effect on blood triglycerides and peripheral obesity", "setting": "[1]; NASH mice, 12-week treatment", "result": "elevated blood triglycerides and peripheral obesity"}, {"measurement": "body weight effect (in words)", "setting": "[1]; chronic treatment, HF/NASH diet, vs vehicle", "result": "significant increase in body weight"}, {"measurement": "effect of therapeutic treatment on established NASH with fibrosis", "setting": "[1]; p.o. once daily for 12 weeks after 20 weeks of HF/NASH diet", "result": "resolved established NASH with fibrosis"}, {"measurement": "plasma triglycerides (TG)", "setting": "NASH patients [2]; NASH patients", "result": "Hypertriglyceridemia; also recorded: elevated plasma triglycerides"}, {"measurement": "steatosis and MRI-PDFF in NASH subjects", "setting": "NASH patients [2]; NASH subjects", "result": "improve steatosis and improvements in MRI-PDFF"}, {"measurement": "liver fat, serum TIMP-1 and liver injury", "setting": "NASH patients [2]; clinical phase 2 NASH studies, 12 weeks", "result": "reductions in liver fat, serum TIMP-1, and liver injury"}]}
{"smiles": "CC[C@H]1[C@@H](O)[C@@H]2[C@H](CC[C@]3(C)[C@@H]([C@H](C)CCC(=O)O)CC[C@@H]23)[C@@]2(C)CC[C@@H](O)C[C@@H]12", "note": "[obeticholic acid, 6α-ethyl-chenodeoxycholic acid]", "values": [{"measurement": "adverse effects of long term administration", "setting": "NASH patients [3]", "result": "associated with pruritus and lipid abnormalities"}]}
{"smiles": "O=C(O)c1cc(F)c2nc(N3C4CCC3CC(OCc3c(-c5ccccc5OC(F)(F)F)noc3C3CC3)C4)sc2c1", "note": "[Tropifexor, 2-[(1R,3r,5S)-3-({5-cyclopropyl-3-[2-(trifluoromethoxy)phenyl]-1,2-oxazol-4-yl}methoxy)-8-azabicyclo[3.2.1]octan-8-yl]-4-fluoro-1,3-benzothiazole-6-carboxylic acid]", "values": [{"measurement": "frequency of serious adverse events", "setting": "[4]; 140 μg and 200 μg vs placebo", "result": "low and comparable across groups"}, {"measurement": "low density lipoprotein-cholesterol (LDL-C)", "setting": "[4]; 140 μg and 200 μg, 12 weeks", "result": "dose-related increase"}, {"measurement": "treatment discontinuation rate due to pruritus", "setting": "[4]; Tropifexor 140 μg", "result": 2, "unit": "%"}, {"measurement": "ALT, LS mean absolute change (SE) from baseline to Week 12", "setting": "[4]; Tropifexor 140 μg once daily", "result": "−20.1 (4.57) U/L"}, {"measurement": "Body weight, LS mean absolute change (SE) from baseline to Week 12", "setting": "[4]; Tropifexor 140 μg once daily", "result": "−2.46 (0.38) kg"}, {"measurement": "GGT, LS mean absolute change (SE) from baseline to Week 12", "setting": "[4]; Tropifexor 140 μg once daily", "result": "−39.2 (3.70) U/L"}, {"measurement": "pre-specified endpoints at week 12", "setting": "[4]; Tropifexor 200 μg", "result": "Pre-specified endpoints were met"}, {"measurement": "treatment discontinuation rate due to pruritus", "setting": "[4]; Tropifexor 200 μg", "result": 6, "unit": "%"}, {"measurement": "ALT, LS mean absolute change (SE) from baseline to Week 12", "setting": "[4]; Tropifexor 200 μg once daily", "result": "−23.6 (4.48) U/L"}, {"measurement": "Body weight, LS mean absolute change (SE) from baseline to Week 12", "setting": "[4]; Tropifexor 200 μg once daily", "result": "−3.20 (0.37) kg"}, {"measurement": "GGT, LS mean absolute change (SE) from baseline to Week 12", "setting": "[4]; Tropifexor 200 μg once daily", "result": "−40.9 (3.62) U/L"}, {"measurement": "share of patients with pruritus whose events were of mild (Grade 1) severity", "setting": "[4]; both Tropifexor groups (140 μg and 200 μg)", "result": "> 60", "unit": "%"}, {"measurement": "ALT, HFF and body weight after 12 weeks (in words)", "setting": "[4]; higher doses (140 μg and 200 μg)", "result": "robust and dose-dependent decreases"}, {"measurement": "efficacy based on biomarkers at Week 12", "setting": "NASH patients [5]; 60 and 90 μg", "result": "anti-inflammatory and anti-steatotic efficacy"}, {"measurement": "tolerability", "setting": "NASH patients [5]; up to 90 μg daily", "result": "generally well tolerated up to 90 μg daily without safety signals"}]}
{"smiles": "COc1cc(C(=O)N2CCC3(CC2)CC(=O)c2cc(-c4cncc(C(=O)O)c4)ccc2O3)cc2c1c(C)cn2C1CC1", "note": "[MK-4704]", "values": [{"measurement": "plasma triglycerides", "setting": "healthy volunteers", "result": "Hypertriglyceridemia"}]}
